Active and inactive are the calls of the source. No rule for the calls is given here.
These compounds were tested against methionyl-tRNA synthetase (Trypanosoma brucei) (assay: inhibition of trypanosomal methionyl-tRNA synthetase – biochemical, fluorescence polarization, dose response, orthogonal assay for T. brucei MetRS inhibitor project, late-stage follow-up (AID 686969)).

Going from `O=C(NCc1nc2ccccc2[nH]1)C1=C[C@H](c2ccc(Br)cc2)C[C@H](OCCCCO)O1` to `O=C(NCc1nc2ccccc2[nH]1)C1=C[C@@H](c2ccc(Br)cc2)C[C@@H](OCCCCO)O1`, the IC50 falls from 3110 nM to 1140 nM (2.7-fold).

First: O=C(NNC(=O)c1cc(-c2ccc(Cl)c(Cl)c2)nc2ccccc12)Nc1ccccc1
Second: COc1ccccc1NS(=O)(=O)c1cccc(NC(=O)Nc2ccccc2)c1
The IC50 of the first is 2.5-fold higher: 1490 nM for the first, 600 nM for the second. The second is the more potent here.

`CC(=O)c1ccc(N2CCN(C(=O)CCCn3c(=O)[nH]c4ccc(Br)cc4c3=O)CC2)cc1` and `O=C1[C@@H]2Cc3c([nH]c4ccccc34)C(c3cccc([N+](=O)[O-])c3)N2C(=O)CN1CCCO` (stereo partly drawn) are within 1.5-fold of each other in IC50: 879 nM for the first, 933 nM for the second.

First: Clc1ccc(-c2nnc(SCc3nc4ccccc4[nH]3)o2)c(Cl)c1
Second: Brc1cnc2nc(SCc3nc4ccccc4[nH]3)[nH]c2c1
The IC50 of the first is 4.6-fold lower: 933 nM for the first, 4270 nM for the second. The first is the more potent here.

Compared with `CC(C)(C)[C@@H]1C=C(C(=O)NCc2nc3ccccc3[nH]2)O[C@H](OCc2ccc(CO)cc2)C1`, `CC(C)(C)[C@H]1C=C(C(=O)NCc2nc3ccccc3[nH]2)O[C@@H](OCc2ccc(CO)cc2)C1` is 1.5-fold lower in IC50: 8120 nM for the first, 5390 nM for the second.

Going from `CCO[C@H]1OC(C(=O)NCc2nc3ccccc3[nH]2)=C[C@@H](c2ccc(Br)cc2)[C@@H]1CCCO` to `O=C(NCc1nc2ccccc2[nH]1)C1=C[C@@H](c2ccc(Br)cc2)C[C@@H](OCc2ccc(CO)cc2)O1`, the IC50 falls from 9390 nM to 2030 nM (4.6-fold). The second is the more potent here.

Going from `O=C(NCCc1nc2ccccc2[nH]1)c1ccc(Cl)c([N+](=O)[O-])c1` to `Clc1ccc(OCCSCc2nc3ccccc3[nH]2)cc1`, the IC50 rises from 331 nM to 9230 nM (28-fold). The first is the more potent here.

Compared with `CN1CC(=O)N2C(c3cccc([N+](=O)[O-])c3)c3[nH]c4ccccc4c3C[C@H]2C1=O` (stereo partly drawn), `CC(C)OCCCN1CC(=O)N2C(c3cccc([N+](=O)[O-])c3)c3[nH]c4ccccc4c3C[C@H]2C1=O` (stereo partly drawn) is 2.1-fold higher in IC50: 717 nM for the first, 1490 nM for the second.

Compared with `O=C(CCC(=O)Nc1cccc([N+](=O)[O-])c1)NN=Cc1cccs1`, `O=C(Cn1cnc2ccccc21)Nc1cccc([N+](=O)[O-])c1` is 3-fold lower in IC50: 8370 nM for the first, 2800 nM for the second.

Going from `CCCCCCCCCC1NC(C(=O)O)Cc2c1[nH]c1ccccc21` (stereo not drawn) to `CN(Cc1cc(Cl)cc(Cl)c1)[C@H]1C[C@H]2c3[nH]c4ccccc4c3CCN2C(=O)[C@H]1CO`, the IC50 falls from 4270 nM to 922 nM (4.6-fold).

Going from `Oc1c(Cl)cc(Cl)cc1CNc1nc2ccccc2[nH]1` to `O=C(Nc1ccc(F)c(Cl)c1)C1CC(=O)n2c(nc3ccccc32)N1` (stereo not drawn), the IC50 rises from 1770 nM to 2910 nM (1.6-fold). The first is the more potent here.

Compared with `O=C(NCc1nc2ccccc2[nH]1)C1=C[C@H](C2CC2)C[C@H](OCc2ccc(CO)cc2)O1`, `O=C(NCc1nc2ccccc2[nH]1)C1=C[C@@H](C2CC2)C[C@@H](OCc2ccc(CO)cc2)O1` is 3-fold lower in IC50: 8110 nM for the first, 2660 nM for the second.

`CCOC(=O)N1CCC(Nc2c(Nc3ccc(F)cc3)c(=O)c2=O)CC1` and `Cc1ccc(NC(=O)CN(C)C(=O)CCSc2ccc(F)cc2)cc1` are within 1.5-fold of each other in IC50: 7300 nM for the first, 5730 nM for the second.

Compared with `O=C(NNC(=O)c1ccc(-n2cncn2)c([N+](=O)[O-])c1)c1ccc(Cl)cc1`, `CN(CC(=O)Nc1ccc(Cl)cc1)C(=O)c1ccc(-n2cncn2)c([N+](=O)[O-])c1` is 3.9-fold lower in IC50: 7410 nM for the first, 1910 nM for the second.

Compared with `O=C(NCc1nc2ccccc2[nH]1)C1=C[C@@H](c2csc3ccccc23)C[C@@H](OCCCCO)O1`, `O=C(NCc1nc2ccccc2[nH]1)C1=C[C@H](c2csc3ccccc23)C[C@H](OCCCCO)O1` is 2.6-fold lower in IC50: 4650 nM for the first, 1790 nM for the second. The second is the more potent here.

Going from `COc1cccc(NC(=O)CSc2nnc3c(n2)[nH]c2ccc(C)cc23)c1` to `COc1ccc2[nH]c3nc(SCC(=O)Nc4ccc5c(c4)OCO5)nnc3c2c1`, the IC50 rises from 75.1 nM to 926 nM (12-fold). The first is the more potent here.

Compared with `CC(CC(=O)Nc1cccc(Br)c1)=NNC(=O)c1ccc(O)cc1O`, `O=C(CC(=O)Nc1cccc(Cl)c1)NN=Cc1ccccc1` is 2.6-fold higher in IC50: 2360 nM for the first, 6030 nM for the second. The first is the more potent here.

Going from `O=C(NCc1nc2ccccc2[nH]1)C1=C[C@@H](c2ccc3c(c2)OCO3)C[C@@H](OCCCCO)O1` to `O=C(NCc1nc2ccccc2[nH]1)C1=C[C@H](c2ccc3c(c2)OCO3)C[C@H](OCCCCO)O1`, the IC50 rises from 2030 nM to 6220 nM (3.1-fold). The first is the more potent here.

Compared with `COc1ccc(OCC(O)CNC(=O)Nc2ccc(Cl)cc2)cc1` (stereo not drawn), `O=C(CC=NOCc1ccc([N+](=O)[O-])cc1)Nc1ccc(Cl)cc1` is 2.6-fold lower in IC50: 7550 nM for the first, 2870 nM for the second.

Going from `C[C@H](O)[C@@H]1C(=O)N2CCc3c([nH]c4ccccc34)[C@@H]2C[C@@H]1N(C)Cc1ccc2c(c1)OCO2` to `O=C(CN1CCSC1=NCc1ccccc1)c1ccc(Cl)c(Cl)c1`, the IC50 rises from 439 nM to 3910 nM (8.9-fold).

Compared with `O=C(C[C@H]1C(=O)N(Cc2ccccc2)C[C@@H]1c1ccc(Br)cc1)Nc1ccc(Br)cc1`, `O=C1CC(N(CCc2ccccc2)C(=S)Nc2ccccc2)C(=O)N1c1ccc(Br)cc1` (stereo not drawn) is 5.2-fold lower in IC50: 2970 nM for the first, 566 nM for the second. The second is the more potent here.

First: CC(=O)c1c[nH]c(C(=O)NCc2cccc(C(F)(F)F)c2)c1
Second: O=C(Cn1cc(C(=O)C(=O)N2CCOCC2)c2ccccc21)Nc1cccc(C(F)(F)F)c1
The IC50 of the first is 7.6-fold higher: 2220 nM for the first, 292 nM for the second. The second is the more potent here.

Going from `COc1ccccc1-n1c(SCC(=O)Nc2ccc(Cl)cc2)nc(O)c(Cc2ccccc2)c1=O` to `O=C(NCc1nc2ccccc2[nH]1)C1=C[C@@H](c2ccccc2)C[C@@H](OCc2ccc(CO)cc2)O1`, the IC50 falls from 4590 nM to 2210 nM (2.1-fold).

Going from `O=C(CC=NOCc1ccc([N+](=O)[O-])cc1)Nc1ccc(Br)cc1` to `O=C(NCc1nc2ccccc2[nH]1)C1=C[C@H](c2ccc(Br)cc2)C[C@H](OCc2ccc(CO)cc2)O1`, the IC50 rises from 1310 nM to 3520 nM (2.7-fold). The first is the more potent here.

With `O=C(N/C(=C\c1cccnc1)c1nc2ccccc2[nH]1)c1cccc(Br)c1` the IC50 was 5650 nM.

`Cc1[nH]c2ccc(Br)cc2c(=O)c1CN1CCCCCC1` was tested, and the IC50 was “inactive”.
`O=C1CC(SCc2nc3ccccc3[nH]2)C(=O)N1c1cccc(Cl)c1` (stereo not drawn) was tested, and the IC50 was “inactive”.
With `CCO[C@@H]1OC(C(=O)NCc2nc3ccccc3[nH]2)=C[C@H](c2ccc(Br)cc2)[C@H]1CCCO` the IC50 was “inactive”.
In the case of `O=C(NCc1nc2ccccc2[nH]1)C1=C[C@H](c2ccccc2)C[C@H](OCc2ccc(CO)cc2)O1`, the IC50 is reported as “inactive”.

— PubChem BioAssay AID686969 (The Scripps Research Institute Molecular Screening Center, 2013)
